The text below walks through data of US4481200A, “α2 -Adrenoceptor antagonistic benzoquinolizines” (John Wyeth & Brother, Limited, priority 1982, dated 1984).

Each structure is given as a SMILES string.

In assay [1] the target is T1, α2-adrenoceptor (Rattus norvegicus, UniProt P22909).
T1 construct: from tissue; host or cells: rat vas deferens
T1 sequence (P22909 1-465): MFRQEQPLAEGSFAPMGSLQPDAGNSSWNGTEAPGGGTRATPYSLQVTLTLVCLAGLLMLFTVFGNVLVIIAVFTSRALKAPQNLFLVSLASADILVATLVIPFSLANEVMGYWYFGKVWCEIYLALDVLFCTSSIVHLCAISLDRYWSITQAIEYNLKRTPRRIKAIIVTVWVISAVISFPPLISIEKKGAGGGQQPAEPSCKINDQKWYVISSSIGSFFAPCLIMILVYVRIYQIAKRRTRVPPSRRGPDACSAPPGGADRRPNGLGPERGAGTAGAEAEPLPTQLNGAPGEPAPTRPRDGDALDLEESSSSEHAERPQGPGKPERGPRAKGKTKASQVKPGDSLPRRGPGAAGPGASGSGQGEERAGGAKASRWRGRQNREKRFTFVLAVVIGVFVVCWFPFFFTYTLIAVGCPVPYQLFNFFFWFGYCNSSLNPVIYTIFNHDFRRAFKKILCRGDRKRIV
Kind of assay: α2-adrenoceptor antagonistic activity on the rat field stimulated vas deferens preparation (clonidine as agonist). Particulars: antagonism of clonidine, 37°, 90 min after introduction of antagonist, Arunlakshana & Schild, read-out: pA2 (α2) (converted). The procedure:
The compounds of the invention were tested for α2 -adrenoceptor antagonistic activity on the rat field stimulated vas deferens preparation using a modification of the method of Drew, Eur. J. Pharmac., 1977, 42, 123-130. The procedure is described below.
Desheathed vasa deferentia from sexually mature rats were suspended in a 6 ml organ bath in Krebs solution at 37° and bubbled with 5% CO2 in oxygen. Platinum ring electrodes were positioned above and below the tissue for field stimulation, The stimulus parameters being 0.1 Hz 1 ms pulse width at supramaximal voltage. Twitch responses were recorded isotonically with a 0.5 g loading. Clonidine hydrochloride was used as the α-adrenoceptor agonist and cumulative concentration-response curves were constructed for the inhibition of twitch obtained with clonidine in the range 0.125 to 4 ng ml^-1. After washing out clonidine, the twitch response quickly recovered and an antagonist was then introduced into the Krebs reservoir. Clonidine concentration-response curves were repeated 90 min after introduction of the antagonist. The concentration of clonidine producing 50% inhibition of twitch before and after introduction of antagonist were obtained and the dose-ratio for clonidine was calculated. Various concentrations of the antagonists were used.
Chemother., 1959, 14, 48-58 and the values of pA2 and slope were calculated.

The test system of assay [2] is α1-adrenoceptor. Kind of assay: α1 antagonistic activity on the isolated anococcygeus muscle of the rat (phenylephrine or methoxamine as agonist). Particulars: antilog of (α2 pA2-α1 pA2). The source says: (§1) The compounds of the invention antagonise the α2 -adrenoceptors to a much greater extent than the α1 -adrenoceptors. The α1 antagonistic activity can be evaluated by a number of different methods. One method involves assessing the activity on the isolated anococcygeus muscle of the rat. The method is based on that of Gillespie, Br.J.Pharmac., 1972, 45, 404-416. In the procedure male rats (250-360 g) are killed by a blow on the head and bled. The two anococcygeus muscles are removed from their position in the midline of the pelvic cavity, where they arise from the upper coccygeal vertebrae. The muscles are suspended in 5 ml organ baths in Krebs solution containing 10^-4 M ascorbic acid, to prevent drug oxidation. The tissues are gassed with a 95% oxygen, 5% CO2 mixture and maintained at 37°. Longitudinal muscle contractions are recorded using isotonic transducers. Cumulative dose response curves are then obtained to phenylephrine or in some cases methoxamine, both agents being […] alpha adrenoceptor agonists. The concentration range of phenylephrine or methoxamine used is 0.02 to 0.8 μg.ml^-1. The agonist is then washed from the bath and the test drug added to the bathing medium at a concentration of 10^-6 M. After 30 min equilibration with the test drug a further agonist dose response curve is obtained. The washing, equilibration and agonists dosing procedures are then repeated using 10^-5 M and 10^-4 M solutions of the test drug. Estimates of the pA2 value for the test drug as an antagonist of phenylephrine or methoxamine were made from the agonist dose-ratios using the method of Arunlakshana & Schild, Br.J.Pharmac. Chemother., 1959, 14, 48-58.

Assay [3] concerns the target T2, α1-adrenoceptor (Rattus norvegicus, UniProt P43140).
T2 construct: One method involves assessing the activity on the isolated anococcygeus muscle of the rat; from tissue; host or cells: rat anococcygeus muscle
T2 sequence (P43140 1-466): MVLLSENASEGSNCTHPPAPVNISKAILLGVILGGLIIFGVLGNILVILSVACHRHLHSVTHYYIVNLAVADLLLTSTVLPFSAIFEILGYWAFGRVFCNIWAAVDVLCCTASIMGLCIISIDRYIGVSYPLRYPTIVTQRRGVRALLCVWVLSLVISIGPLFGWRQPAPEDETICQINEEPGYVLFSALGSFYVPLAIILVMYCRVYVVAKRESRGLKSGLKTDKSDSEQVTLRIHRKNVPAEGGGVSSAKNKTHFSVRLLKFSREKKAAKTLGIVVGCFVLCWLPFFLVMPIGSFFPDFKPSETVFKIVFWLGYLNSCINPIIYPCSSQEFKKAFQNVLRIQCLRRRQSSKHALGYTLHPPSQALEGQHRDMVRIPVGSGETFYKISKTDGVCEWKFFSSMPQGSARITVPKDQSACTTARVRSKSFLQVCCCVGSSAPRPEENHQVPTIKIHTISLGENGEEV
The assay is described as above. Particulars: antagonism of phenylephrine or methoxamine, rat anococcygeus muscle, 37°, 30 min equilibration, 10^-6 to 10^-4 M; Arunlakshana & Schild; read-out: pA2 (α1) (converted).
From the text: as §1

Consider `CNS(=O)(=O)N(C)[C@@H]1CCN2CCc3ccccc3[C@@H]2C1` (relative stereo) [Example 1, N-Methyl-N-(1,3,4,6,7,11bα-hexahydro-2H-benzo[a]quinolizin-2β-yl)-N'-methylsulphamide], for which the results for the Kb in assay [1] and in assay [3] were 36.3 nM and 646 nM, respectively. The α2/α1 selectivity in assay [2] was 18.

On to `CN(C)S(=O)(=O)N(C)[C@@H]1CCN2CCc3ccccc3[C@@H]2C1` (relative stereo) [Example 2, N,N,N'-Trimethyl-N'-[1,3,4,6,7,11bα-hexahydro-2H-benzo[a]quinolizin-2β-yl]sulphamide], for which the Kb in assay [1] is 39.8 nM; in assay [3] it was 1120 nM. Further, the α2/α1 selectivity in assay [2] was determined as 28.

Consider `CN(C)CCS(=O)(=O)N(C)[C@@H]1CCN2CCc3ccccc3[C@@H]2C1` (relative stereo) [Example 3, N-Methyl-N-(1,3,4,6,7,11bα-hexahydro-2H-benzo[a]quinolizin-2β-yl)-2-dimethylaminoethanesulphonamide], for which the Kb in assay [1] is 55 nM; in assay [3], 2510 nM. The α2/α1 selectivity in assay [2] was found to be 46.

Turning to `CC(C)NS(=O)(=O)N(C)[C@@H]1CCN2CCc3ccccc3[C@@H]2C1` (relative stereo) [Example 4, N-(i-Propyl)-N'-(1,3,4,6,7,11bα-hexahydro-2H-benzo[a]quinolizin-2β-yl)-N'-methylsulphamide], the values for the Kb in assay [1] and in assay [3] were 37.2 nM and 363 nM, respectively. The molecule also yielded a α2/α1 selectivity in assay [2] of 10.
